Legend:
[1] = test system: HEV1 (MST form) (DNA, aptamer) AGCAGCTTATTGCTGAATTTTT; test: microscale thermophoresis; conditions: NaCl 300 mM, MgCl2 5 mM (aptamer buffer); 20 mM Tris pH 7.6, 0.01% Tween 20; E2 up to 1000 nM; 30 min incubation; abstract 92 nM
[2] = test system: HEV2 (MST form) (DNA, aptamer) AGCAGATGAATCTGAATTTTT; test: microscale thermophoresis; conditions: NaCl 300 mM, MgCl2 5 mM (aptamer buffer); 20 mM Tris pH 7.6, 0.01% Tween 20; highest E2 1000 nM
[3] = test system: HEV1 (colorimetric form) (DNA, aptamer) AGCAGCTTATTGCTGAATTTTT; test: AuNP aggregation colorimetry; conditions: NaCl; A660/A520 ratio rises with E2, 0.2 to 1 μg/mL; room temperature
[4] = test system: M70 (electrode form) (DNA, aptamer) GCTTCCAGCTTATTGAATTACACGCAGAGGGTAGCGGCTCTGCGCATTCAATTGCTGCGCGCTGAAGCGCGGAAGC; test: differential pulse voltammetry aptasensor; conditions: peak current falls with log E2, 5 pg/mL to 20 ng/mL; immobilised aptamer
[5] = test system: M70 (colorimetric form) (DNA, aptamer) GCTTCCAGCTTATTGAATTACACGCAGAGGGTAGCGGCTCTGCGCATTCAATTGCTGCGCGCTGAAGCGCGGAAGC; test: AuNP aggregation colorimetry; conditions: NaCl; A660/A520 ratio rises with E2; room temperature
[6] = test system: HEV1 (electrode form) (DNA, aptamer) AGCAGCTTATTGCTGAATTTTT; test: differential pulse voltammetry aptasensor; conditions: peak current falls with log E2, from 5 pg/mL; immobilised aptamer

KD [1]: 92.76 ± 66.02 nM
binding [2]: no
binding [3]: yes
binding [4]: yes
binding [5]: yes
binding [6]: yes
Compound: C[C@]12CC[C@@H]3c4ccc(O)cc4CC[C@H]3[C@@H]1CC[C@@H]2O
